According to patent US9827235B2, “Pharmaceutical compositions comprising antibacterial agents” (WOCKHARDT LIMITED, priority 2013, dated 2017):
Where two headings read alike, the source gives them in different places.

How the values were obtained:
Assay type in all cases: cell-based
E. coli M 44 = test: MIC on Muller Hinton Agar (CLSI); conditions: Escherichia coli
Description: (§1) The antibacterial activity of combinations according to the invention was investigated against various bacterial strains. In a typical study, minimum inhibitory concentrations (MIC) were determined using Muller Hinton Agar (MHA) (BD, USA) according to Clinical and Laboratory Standards Institute (CLSI) recommendations, (Clinical and Laboratory Standards Institute (CLSI), Performance Standards for Antimicrobial Susceptibility Testing, 20th Informational Supplement, M 100-S20, Volume 30, No. 1, 2010). In short, the inocula were adjusted to deliver about 10^4 colony forming units (CFU) per spot with a multipoint inoculator (Applied Quality Services, UK). The plates were pored with doubling concentration range of the test combinations according to invention containing MHA. The plates were inoculated and were incubated at 35° C. for 18 hours.

E. coli S 16 = test: MIC on Muller Hinton Agar (CLSI); conditions: Escherichia coli
Description: as §1

E. coli S 30 = test: MIC on Muller Hinton Agar (CLSI); conditions: Escherichia coli
Description: as §1

E. coli S 330 = test: MIC on Muller Hinton Agar (CLSI); conditions: Escherichia coli
Description: as §1

E. coli S 33 = test: MIC on Muller Hinton Agar (CLSI); conditions: Escherichia coli
Description: as §1

E. coli S 35 = test: MIC on Muller Hinton Agar (CLSI); conditions: Escherichia coli
Description: as §1

K. pneumoniae B 77 = test: MIC on Muller Hinton Agar (CLSI); conditions: Klebsiella pneumoniae
Description: as §1

K. pneumoniae B 88 = test: MIC on Muller Hinton Agar (CLSI); conditions: Klebsiella pneumoniae
Description: as §1

K. pneumoniae M 3 = test: MIC on Muller Hinton Agar (CLSI); conditions: Klebsiella pneumoniae
Description: as §1

K. pneumoniae NCTC 13439 = test: MIC on Muller Hinton Agar (CLSI); conditions: Klebsiella pneumoniae
Description: as §1

K. pneumoniae S 48 = test: MIC on Muller Hinton Agar (CLSI); conditions: Klebsiella pneumoniae
Description: as §1

K. pneumoniae S 50 = test: MIC on Muller Hinton Agar (CLSI); conditions: Klebsiella pneumoniae
Description: as §1

[1] = tested on: P. aeruginosa H 113720186; test: MIC on Muller Hinton Agar (CLSI); conditions: Pseudomonas aeruginosa
Description: as §1

P. aeruginosa Q-111 = test: MIC on Muller Hinton Agar (CLSI); conditions: Pseudomonas aeruginosa
Description: as §1

P. aeruginosa S 504 = test: MIC on Muller Hinton Agar (CLSI); conditions: Pseudomonas aeruginosa
Description: as §1

P. aeruginosa S 508 = test: MIC on Muller Hinton Agar (CLSI); conditions: Pseudomonas aeruginosa
Description: as §1

P. aeruginosa S 513 = test: MIC on Muller Hinton Agar (CLSI); conditions: Pseudomonas aeruginosa
Description: as §1

[2] = tested on: clinical isolate of K. pneumoniae B 88 producing metallo beta-lactamases [SHV, TEM, NDM-1]; test: Time kill study; conditions: for Bacterial count: each agent at 8 mcg/ml, initial count 6.18 log CFU/ml
Description: (§2) Typically, freshly grown cultures were diluted to the required cell density (initial starting inoculum) in Cation adjusted Muller Hinton broth medium BD, USA). The antibacterial agents at the required concentrations were added into the culture-containing medium either alone or in combination. The samples were incubated under shaking condition (120 rpm) at 37° C. Enumeration of viable bacterial count was undertaken, every 2 hour, by diluting in normal saline and plating on to the Tryptic Soya Agar plates (BD, USA). The plates were incubated for 24 hours to arrive at the viable bacterial count. […] The decrease of 1 Log CFU/ml, after administration of combination of present invention, in comparison to initial bacterial count corresponds to 90% killing of bacteria. Similarly, 2 Log CFU/ml reductions corresponds to 99% killing of bacteria and 3 Log CFU/ml reductions is equal to 99.9% killing of bacteria.

[3] = tested on: clinical isolate of K. pneumoniae S 48 producing metallo beta-lactamases [SHV, TEM, NDM-1]; test: Time kill study; conditions: for Bacterial count: each agent at 8 mcg/ml, initial count 6.84 log CFU/ml
Description: as §2

[4] = tested on: highly resistant strains of E. coli, K. pneumonia and P. aeruginosa; test: MIC, summary over the strain panel
Description: as §1

[5] = used alone at 8 mcg/ml, at the end of 6 hours

- MIC (E. coli M 44; M44, agent alone, enzymes TEM, NDM-1, read-out: MIC): > 32 µg/mL
- MIC (E. coli M 44; M44, with compound of Formula (I) at 8 mcg/ml, read-out: MIC (mcg/ml) of cefepime in presence of a compound of Formula (I) (8 mcg/ml)): ≤ 0.015 µg/mL
- MIC (E. coli S 16; S16, agent alone, enzymes CMY type, TEM, DHA, read-out: MIC): > 32 µg/mL
- MIC (E. coli S 16; S16, with compound of Formula (I) at 8 mcg/ml, read-out: MIC (mcg/ml) of cefepime in presence of a compound of Formula (I) (8 mcg/ml)): ≤ 0.015 µg/mL
- MIC (E. coli S 30; S30, agent alone, enzymes CMY type, TEM, NDM-1, read-out: MIC): > 32 µg/mL
- MIC (E. coli S 30; S30, with compound of Formula (I) at 8 mcg/ml, read-out: MIC (mcg/ml) of cefepime in presence of a compound of Formula (I) (8 mcg/ml)): ≤ 0.015 µg/mL
- MIC (E. coli S 330; S330, agent alone, enzymes NDM, read-out: MIC): > 32 µg/mL
- MIC (E. coli S 330; S330, with compound of Formula (I) at 8 mcg/ml, read-out: MIC (mcg/ml) of cefepime in presence of a compound of Formula (I) (8 mcg/ml)): ≤ 0.015 µg/mL
- MIC (E. coli S 33; S33, agent alone, enzymes TEM, NDM-1, read-out: MIC): > 32 µg/mL
- MIC (E. coli S 33; S33, with compound of Formula (I) at 8 mcg/ml, read-out: MIC (mcg/ml) of cefepime in presence of a compound of Formula (I) (8 mcg/ml)): ≤ 0.015 µg/mL
- MIC (E. coli S 35; S35, agent alone, enzymes TEM, NDM-1, read-out: MIC): > 32 µg/mL
- MIC (E. coli S 35; S35, with compound of Formula (I) at 8 mcg/ml, read-out: MIC (mcg/ml) of cefepime in presence of a compound of Formula (I) (8 mcg/ml)): ≤ 0.015 µg/mL
- MIC (K. pneumoniae B 77; B77, agent alone, enzymes SHV, TEM, NDM-1, read-out: MIC): > 32 µg/mL
- MIC (K. pneumoniae B 77; B77, with compound of Formula (I) at 8 mcg/ml, read-out: MIC (mcg/ml) of cefepime in presence of a compound of Formula (I) (8 mcg/ml)): ≤ 0.25 µg/mL
- MIC (K. pneumoniae B 88; B88, agent alone, enzymes SHV, TEM, NDM-1, read-out: MIC): > 32 µg/mL
- MIC (K. pneumoniae B 88; B88, with compound of Formula (I) at 8 mcg/ml, read-out: MIC (mcg/ml) of cefepime in presence of a compound of Formula (I) (8 mcg/ml)): ≤ 0.015 µg/mL
- MIC (K. pneumoniae M 3; M3, agent alone, enzymes SHV, CTXM, TEM, NDM-1, read-out: MIC): > 32 µg/mL
- MIC (K. pneumoniae M 3; M3, with compound of Formula (I) at 8 mcg/ml, read-out: MIC (mcg/ml) of cefepime in presence of a compound of Formula (I) (8 mcg/ml)): ≤ 0.015 µg/mL
- MIC (K. pneumoniae NCTC 13439; NCTC13439, agent alone, enzymes VIM-1, read-out: MIC): > 32 µg/mL
- MIC (K. pneumoniae NCTC 13439; NCTC13439, with compound of Formula (I) at 8 mcg/ml, read-out: MIC (mcg/ml) of cefepime in presence of a compound of Formula (I) (8 mcg/ml)): 1 µg/mL
- MIC (K. pneumoniae S 48; S48, agent alone, enzymes SHV, TEM, NDM-1, read-out: MIC): > 32 µg/mL
- MIC (K. pneumoniae S 48; S48, with compound of Formula (I) at 8 mcg/ml, read-out: MIC (mcg/ml) of cefepime in presence of a compound of Formula (I) (8 mcg/ml)): ≤ 0.015 µg/mL
- MIC (K. pneumoniae S 50; S50, agent alone, enzymes SHV, TEM, NDM-1, read-out: MIC): > 32 µg/mL
- MIC (K. pneumoniae S 50; S50, with compound of Formula (I) at 8 mcg/ml, read-out: MIC (mcg/ml) of cefepime in presence of a compound of Formula (I) (8 mcg/ml)): ≤ 0.015 µg/mL
- MIC ([1]; H113720186, agent alone, enzymes IMP, read-out: MIC): > 32 µg/mL
- MIC ([1]; H113720186, with compound of Formula (I) at 8 mcg/ml, read-out: MIC (mcg/ml) of cefepime in presence of a compound of Formula (I) (8 mcg/ml)): ≤ 0.5 µg/mL
- MIC (P. aeruginosa Q-111; Q111, agent alone, enzymes OXA-4, OXA-11, read-out: MIC): > 32 µg/mL
- MIC (P. aeruginosa Q-111; Q111, with compound of Formula (I) at 8 mcg/ml, read-out: MIC (mcg/ml) of cefepime in presence of a compound of Formula (I) (8 mcg/ml)): ≤ 0.06 µg/mL
- MIC (P. aeruginosa S 504; S504, agent alone, enzymes VIM-6, read-out: MIC): > 32 µg/mL
- MIC (P. aeruginosa S 504; S504, with compound of Formula (I) at 8 mcg/ml, read-out: MIC (mcg/ml) of cefepime in presence of a compound of Formula (I) (8 mcg/ml)): ≤ 0.06 µg/mL
- MIC (P. aeruginosa S 508; S508, agent alone, enzymes VIM-11, read-out: MIC): > 32 µg/mL
- MIC (P. aeruginosa S 508; S508, with compound of Formula (I) at 8 mcg/ml, read-out: MIC (mcg/ml) of cefepime in presence of a compound of Formula (I) (8 mcg/ml)): ≤ 0.06 µg/mL
- MIC (P. aeruginosa S 513; S513, agent alone, enzymes VIM-6, read-out: MIC): > 32 µg/mL
- MIC (P. aeruginosa S 513; S513, with compound of Formula (I) at 8 mcg/ml, read-out: MIC (mcg/ml) of cefepime in presence of a compound of Formula (I) (8 mcg/ml)): ≤ 0.06 µg/mL
- MICs (range over the strains) ([4]; agent alone, resistant strains of E. coli, K. pneumonia and P. aeruginosa): 16 to 64 µg/mL
- MIC values of cefepime in presence of the compound of Formula (I) (range over the strains) ([4]; with compound of Formula (I) at 8 mcg/ml): 0.015 to 1 µg/mL
Compound: CO/N=C(\C(=O)N[C@@H]1C(=O)N2C(C(=O)[O-])=C(C[N+]3(C)CCCC3)CS[C@H]12)c1csc(N)n1 [Cefepime, cefepime]
- Bacterial count ([2]; 2 hours): 6.9 Log CFU/ml
- Bacterial count ([2]; 4 hours): 8.23 Log CFU/ml
- Bacterial count ([2]; 6 hours): 8.23 Log CFU/ml
- Change in bacterial count (in words) [2, 5]: no decrease in bacterial count was observed
- Bacterial count ([3]; 2 hours): 6.17 Log CFU/ml
- Bacterial count ([3]; 4 hours): 7.11 Log CFU/ml
- Bacterial count ([3]; 6 hours): 8.69 Log CFU/ml
- Change in bacterial count (in words) [3, 5]: no decrease in bacterial count was observed
